Results taken from patent US9890432B2, “PRDM14 and FAM19A4, molecular diagnostic markers for HPV-induced invasive cancers and their high-grade precursor lesions” (SELF-SCREEN B.V., priority 2013, dated 2018).
“Also recorded” adds a separate entry of the source.

System: PRDM14 mRNA expression in SiHa cervical cancer cells
Experiment: PRDM14 mRNA expression in SiHa cells after treatment with a DNA methylation inhibitor
Assay type: cell-based, human
Details: DAC at 0.2 μM and 5 μM, controls PBS and ethanol
Procedure: Treatment of SiHa cervical cancer cells was performed with the methylation inhibitor 2′-deoxy-5′azacytidine (5′-aza or DAC) at 0.2 μM and 5 μM concentration. Other treatments were PBS and ethanol (EtOH). All treatments were in duplicate. Controls are human reference RNA and a -RT control (without reverse transcriptase added to the cDNA reaction mixture).

## Nc1ncn([C@H]2C[C@H](O)[C@@H](CO)O2)c(=O)n1 [DAC, 5-aza-2 deoxycytidine]
  PRDM14 mRNA expression: upregulated; also recorded: upregulation
